Measurements published in patent publication US10597388B2, “Pyridazinone herbicides” (FMC CORPORATION, priority 2014, dated 2020).

What was measured:
Assay in all cases: Test E greenhouse herbicide test, pre- and postemergence
Type in all cases: in vivo
soybean (Glycine max) = system: soybean (Glycine max)
In short: (§1)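 Visual rating vs untreated controls, 0 = no effect, 100 = complete control, after 14–21 d greenhouse. Pre: seeded silt loam treated with surfactant-containing solvent formulation. Post: 1–4-leaf plants (2–18 cm) in peat/vermiculite medium.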

[1] = system: ragweed (common ragweed, Ambrosia elatior)
In short: as §1

[2] = system: johnsongrass (Sorghum halepense); details: Preemergence
In short: as §1

[3] = system: beggarticks (hairy beggarticks, Bidens pilosa)
In short: as §1

[4] = system: nutsedge, yellow (yellow nutsedge, Cyperus esculentus); details: Preemergence
In short: as §1

[5] = system: foxtail, green (green foxtail, Setaria viridis); details: Preemergence
In short: as §1

[6] = system: pigweed, palmer (palmer pigweed, Amaranthus palmeri)
In short: as §1

[7] = system: foxtail, giant (giant foxtail, Setaria faberii); details: Preemergence
In short: as §1

[8] = system: panicum, fall (fall panicum, Panicum dichotomiflorum)
In short: as §1

[9] = system: sandbur (southem sandbur, Cenchrus echinatus)
In short: as §1

[10] = system: lambsquarters (Chenopodium album); details: Preemergence
In short: as §1

[11] = system: horseweed (Conyza canadensis)
In short: as §1

[12] = system: barnyardgrass (Echinochloa crus-galli)
In short: as §1

corn (Zea mays) = system: corn (Zea mays)
In short: as §1

[13] = system: velvetleaf (Abutilon theophrasti); details: Preemergence
In short: as §1

[14] = system: dayflower (Virginia (VA) dayflower, Commelina virginica)
In short: as §1

[15] = 62 g ai/ha, Postemergence, scale 0 to 100 (0 no effect, 100 complete control)
[16] = 62 g ai/ha, Preemergence, scale 0 to 100 (0 no effect, 100 complete control)
[17] = 125 g ai/ha, Postemergence, scale 0 to 100 (0 no effect, 100 complete control)
[18] = 125 g ai/ha, Preemergence, scale 0 to 100 (0 no effect, 100 complete control)
[19] = 250 g ai/ha, Postemergence, scale 0 to 100 (0 no effect, 100 complete control)
[20] = Postemergence, 31 g ai/ha, visual, scale 0 no effect to 100 complete control
[21] = Preemergence, 31 g ai/ha, scale 0 to 100, 0 no effect, 100 complete control
[22] = Preemergence, 250 g ai/ha, visual, scale 0 no effect to 100 complete control
[23] = 62 g ai/ha, scale 0 to 100 (0 no effect, 100 complete control)
[24] = 125 g ai/ha, scale 0 to 100 (0 no effect, 100 complete control)
[25] = 31 g ai/ha, scale 0 to 100, 0 no effect, 100 complete control
[26] = 250 g ai/ha, visual, scale 0 no effect to 100 complete control
[27] = Preemergence, 16 g ai/ha, scale 0 to 100, 0 no effect, 100 complete control
[28] = 16 g ai/ha, scale 0 to 100, 0 no effect, 100 complete control

Cc1nn(C)c(=O)c(-c2ccc(Br)c3ccccc23)c1O [Compound 75]
Plant response rating, Soybean (soybean (Glycine max); [15]): 70
Plant response rating, Soybean (soybean (Glycine max); [16]): 35
Plant response rating, Soybean (soybean (Glycine max); [17]): 70
Plant response rating, Soybean (soybean (Glycine max); [18]): 40
Plant response rating, Soybean (soybean (Glycine max); [19]): 75
Plant response rating, Soybean (soybean (Glycine max); [20]): 70
Plant response rating, Soybean (soybean (Glycine max); [21]): 0
Plant response rating, Soybean (soybean (Glycine max); [22]): 70
Plant response rating, Ragweed [1, 15]: 70
Plant response rating, Ragweed [1, 16]: 65
Plant response rating, Ragweed [1, 17]: 60
Plant response rating, Ragweed [1, 18]: 80
Plant response rating, Ragweed [1, 19]: 90
Plant response rating, Ragweed [1, 20]: 55
Plant response rating, Ragweed [1, 21]: 35
Plant response rating, Ragweed [1, 22]: 100
Plant response rating, Johnsongrass [2, 23]: 0
Plant response rating, Johnsongrass [2, 24]: 10
Plant response rating, Johnsongrass [2, 25]: 0
Plant response rating, Johnsongrass [2, 26]: 15
Plant response rating, Beggarticks [3, 15]: 95
Plant response rating, Beggarticks [3, 16]: 80
Plant response rating, Beggarticks [3, 17]: 100
Plant response rating, Beggarticks [3, 18]: 100
Plant response rating, Beggarticks [3, 19]: 100
Plant response rating, Beggarticks [3, 20]: 100
Plant response rating, Beggarticks [3, 21]: 35
Plant response rating, Beggarticks [3, 22]: 100
Plant response rating, Nutsedge, Yellow [4, 23]: 10
Plant response rating, Nutsedge, Yellow [4, 24]: 70
Plant response rating, Nutsedge, Yellow [4, 25]: 0
Plant response rating, Nutsedge, Yellow [4, 26]: 65
Plant response rating, Foxtail, Green [5, 23]: 0
Plant response rating, Foxtail, Green [5, 24]: 0
Plant response rating, Foxtail, Green [5, 25]: 0
Plant response rating, Foxtail, Green [5, 26]: 90
Plant response rating, Pigweed, Palmer [6, 15]: 70
Plant response rating, Pigweed, Palmer [6, 16]: 85
Plant response rating, Pigweed, Palmer [6, 17]: 100
Plant response rating, Pigweed, Palmer [6, 18]: 50
Plant response rating, Pigweed, Palmer [6, 19]: 100
Plant response rating, Pigweed, Palmer [6, 20]: 70
Plant response rating, Pigweed, Palmer [6, 21]: 30
Plant response rating, Pigweed, Palmer [6, 22]: 100
Plant response rating, Foxtail, Giant [7, 23]: 5
Plant response rating, Foxtail, Giant [7, 24]: 35
Plant response rating, Foxtail, Giant [7, 25]: 0
Plant response rating, Foxtail, Giant [7, 26]: 75
Plant response rating, Panicum, Fall [8, 15]: 40
Plant response rating, Panicum, Fall [8, 16]: 50
Plant response rating, Panicum, Fall [8, 17]: 50
Plant response rating, Panicum, Fall [8, 18]: 80
Plant response rating, Panicum, Fall [8, 19]: 60
Plant response rating, Panicum, Fall [8, 20]: 50
Plant response rating, Panicum, Fall [8, 21]: 10
Plant response rating, Panicum, Fall [8, 22]: 90
Plant response rating, Sandbur [9, 15]: 20
Plant response rating, Sandbur [9, 16]: 10
Plant response rating, Sandbur [9, 17]: 20
Plant response rating, Sandbur [9, 18]: 40
Plant response rating, Sandbur [9, 19]: 30
Plant response rating, Sandbur [9, 20]: 10
Plant response rating, Sandbur [9, 21]: 0
Plant response rating, Sandbur [9, 22]: 70
Plant response rating, Lambsquarters [10, 23]: 100
Plant response rating, Lambsquarters [10, 24]: 100
Plant response rating, Lambsquarters [10, 25]: 100
Plant response rating, Lambsquarters [10, 26]: 100
Plant response rating, Horseweed [11, 15]: 50
Plant response rating, Horseweed [11, 17]: 60
Plant response rating, Horseweed [11, 19]: 50
Plant response rating, Horseweed [11, 20]: 40
Plant response rating, Barnyardgrass [12, 15]: 30
Plant response rating, Barnyardgrass [12, 16]: 20
Plant response rating, Barnyardgrass [12, 17]: 25
Plant response rating, Barnyardgrass [12, 18]: 35
Plant response rating, Barnyardgrass [12, 19]: 30
Plant response rating, Barnyardgrass [12, 20]: 20
Plant response rating, Barnyardgrass [12, 21]: 20
Plant response rating, Barnyardgrass [12, 22]: 65
Plant response rating, Corn (corn (Zea mays); [15]): 0
Plant response rating, Corn (corn (Zea mays); [16]): 0
Plant response rating, Corn (corn (Zea mays); [17]): 0
Plant response rating, Corn (corn (Zea mays); [18]): 0
Plant response rating, Corn (corn (Zea mays); [19]): 0
Plant response rating, Corn (corn (Zea mays); [20]): 0
Plant response rating, Corn (corn (Zea mays); [21]): 0
Plant response rating, Corn (corn (Zea mays); [22]): 35
Plant response rating, Velvetleaf [13, 23]: 85
Plant response rating, Velvetleaf [13, 24]: 100
Plant response rating, Velvetleaf [13, 25]: 35
Plant response rating, Velvetleaf [13, 26]: 98
Plant response rating, Dayflower, VA [14, 15]: 50
Plant response rating, Dayflower, VA [14, 16]: 10
Plant response rating, Dayflower, VA [14, 17]: 50
Plant response rating, Dayflower, VA [14, 18]: 60
Plant response rating, Dayflower, VA [14, 19]: 65
Plant response rating, Dayflower, VA [14, 20]: 30
Plant response rating, Dayflower, VA [14, 21]: 10
Plant response rating, Dayflower, VA [14, 22]: 75

COC(=O)Oc1c(C)nn(C)c(=O)c1-c1c(C)sc2ccc(C)cc12 [Compound 80]
Plant response rating, Soybean (soybean (Glycine max); [16]): 0
Plant response rating, Soybean (soybean (Glycine max); [18]): 0
Plant response rating, Soybean (soybean (Glycine max); [27]): 0
Plant response rating, Soybean (soybean (Glycine max); [21]): 0
Plant response rating, Ragweed [1, 16]: 100
Plant response rating, Ragweed [1, 18]: 100
Plant response rating, Ragweed [1, 27]: 70
Plant response rating, Ragweed [1, 21]: 70
Plant response rating, Johnsongrass [2, 23]: 80
Plant response rating, Johnsongrass [2, 24]: 80
Plant response rating, Johnsongrass [2, 25]: 0
Plant response rating, Beggarticks [3, 16]: 100
Plant response rating, Beggarticks [3, 18]: 100
Plant response rating, Beggarticks [3, 27]: 100
Plant response rating, Beggarticks [3, 21]: 85
Plant response rating, Nutsedge, Yellow [4, 23]: 40
Plant response rating, Nutsedge, Yellow [4, 24]: 35
Plant response rating, Nutsedge, Yellow [4, 28]: 5
Plant response rating, Nutsedge, Yellow [4, 25]: 10
Plant response rating, Foxtail, Green [5, 23]: 50
Plant response rating, Foxtail, Green [5, 24]: 65
Plant response rating, Foxtail, Green [5, 28]: 0
Plant response rating, Foxtail, Green [5, 25]: 15
Plant response rating, Pigweed, Palmer [6, 16]: 70
Plant response rating, Pigweed, Palmer [6, 18]: 70
Plant response rating, Pigweed, Palmer [6, 27]: 20
Plant response rating, Pigweed, Palmer [6, 21]: 35
Plant response rating, Foxtail, Giant [7, 23]: 80
Plant response rating, Foxtail, Giant [7, 24]: 85
Plant response rating, Foxtail, Giant [7, 28]: 0
Plant response rating, Foxtail, Giant [7, 25]: 50
Plant response rating, Panicum, Fall [8, 16]: 95
Plant response rating, Panicum, Fall [8, 18]: 98
Plant response rating, Panicum, Fall [8, 27]: 80
Plant response rating, Panicum, Fall [8, 21]: 90
Plant response rating, Sandbur [9, 16]: 70
Plant response rating, Sandbur [9, 18]: 75
Plant response rating, Sandbur [9, 27]: 0
Plant response rating, Sandbur [9, 21]: 65
Plant response rating, Lambsquarters [10, 23]: 98
Plant response rating, Lambsquarters [10, 24]: 100
Plant response rating, Lambsquarters [10, 28]: 65
Plant response rating, Lambsquarters [10, 25]: 100
Plant response rating, Horseweed [11, 16]: 100
Plant response rating, Horseweed [11, 18]: 100
Plant response rating, Horseweed [11, 27]: 100
Plant response rating, Horseweed [11, 21]: 100
Plant response rating, Barnyardgrass [12, 16]: 20
Plant response rating, Barnyardgrass [12, 18]: 20
Plant response rating, Barnyardgrass [12, 27]: 0
Plant response rating, Barnyardgrass [12, 21]: 0
Plant response rating, Corn (corn (Zea mays); [16]): 0
Plant response rating, Corn (corn (Zea mays); [18]): 0
Plant response rating, Corn (corn (Zea mays); [27]): 0
Plant response rating, Corn (corn (Zea mays); [21]): 0
Plant response rating, Velvetleaf [13, 23]: 70
Plant response rating, Velvetleaf [13, 24]: 90
Plant response rating, Velvetleaf [13, 28]: 0
Plant response rating, Velvetleaf [13, 25]: 20
Plant response rating, Dayflower, VA [14, 16]: 0
Plant response rating, Dayflower, VA [14, 18]: 10
Plant response rating, Dayflower, VA [14, 27]: 0
Plant response rating, Dayflower, VA [14, 21]: 0
